# Experimental data reported in patent publication US12473308B2, “Luminescent silafluorene and germafluorene compounds” (The Curators Of The University Of Missouri, priority 2019, dated 2025).
# “Also recorded” adds a separate entry of the source.
# How the values were obtained:
# [1] = Solubility in DMSO and in aqueous solution; type: physicochemical; conditions: for solubility in aqueous solution: aqueous solutions / aqueous buffer, diluted from DMSO
# From the text: Studies have been conducted herein for a series of silafluorenes with a broad range of alkynyl substituent groups: 3Si, 4Si, 7Si, […], 9Si, and 11Si, and 13Si. […] This provides a tunability to the optical behavior that is useful for bioimaging.
# This provides a tunability to the optical behavior that is useful for imaging (FIG. 40).
# [2] = Quantum yield in aqueous solution (Tris) and in the presence of surfactants; type: physicochemical; conditions: for φTX (quantum yield): 0.6 mM TX-100; for φSBDS (quantum yield): 10 mM SDBS; for φCTAB (quantum yield): 20 mM CTAB; for φCHAPS (quantum yield): 25 mM CHAPS; for φSDS (quantum yield): 30 mM SDS; for φTris (quantum yield): aqueous solution, Tris, no surfactant
# Procedure: (§1) Quantum yields were collected for these compounds in aqueous solution and in the presence of the aforementioned surfactants and the data are shown in Table 2. Quantum yields in the presence of surfactants are markedly higher than in their absence. In the presence of detergents, the quantum yield is recovered to near perfect quantum efficiency.
# (§2) The surfactants are 0.6 mM TX-100, 25 mM CHAPS, 20 mM CTAB, 30 mM SDS, and 10 mM SDBS. ExpiCHO cells were stained with 10 μM 3Si for 15 minutes. Experimental details include Gains: 762; Digital gains: 2.3; Pinhole: 1 AU; and 2% Laser intensity.
# [3] = Quantum yield in CH2Cl2 (DCM) solution; type: physicochemical
# From the text: (§3) These new compounds (3Si/3Ge through 8Si %8Ge) show a strong absorption band in CH2Cl2 solution in the region of 371-394 nm (log ε values ranged from 4.25-5.23) and emission maxima in the region of 401-452 nm. The quantum efficiencies determined from solution samples containing the silafluorenes 3Si-8Si were high (0.80-0.87) and the related germafluorenes 3Ge-8Ge had slightly lower values between 0.64-0.83. […] The solid-state quantum yields have been measured for several of the sila- and germafluorenes. The solid-state quantum yields for 7 compounds have been measured and the values range from 0.14 to 0.91 with the highest values for compounds 5Ge […] and 6Ge (0.81). Additional quantum yield measurements both in solution and in the solid-state are made for other compounds shown in Scheme 2 (FIG. 2).
# The silafluorenes show intense fluorescence both in solution and in the solid-state (FIG. 11). The quantum yield range in CH2Cl2 solution is 0.80-0.89 for several silafluorenes studied to date.
# as §1
# [4] = Fluorescence change upon addition of detergent Triton X-100; conditions: for spectral change when Triton X-100 is added: neutral detergent Triton X-100
# Procedure: (§4) Non-denaturing detergents, common proxies for membranes and lipids, were added to each compound. […] Moreover, the degree of enhancement is very sensitive to the aggregation state of the detergent: enhancement is more dramatic at concentrations at which the detergents are known to form micellar aggregates (critical micelle concentration).
# Detergents enhance fluorescence. Triton X-100 (TX100) was added to each metallafluorene at concentrations below and above TX-100's CMC (0.3 mM), and fluorescence was measured (FIGS. 31A, 31B, and 32).
# as §4, with “(i.e. the critical” for “(critical”
# [5] = system: ExpiCHO cells; experiment: Fluorescence staining of CHO cells; type: cell-based; conditions: 10 μM, 15 minutes
# Procedure: as §2
# [6] = Solid-state quantum yield; type: physicochemical
# From the text: as §3
# [7] = system: yeast cells (S. cerevisiae); experiment: Fluorescence confocal microscopy of yeast cells; type: cell-based; conditions: permeabilized with DMSO, 405 nm laser, 100×
# Procedure: S. cerevisiae were stained with 2,7-bis(4-ethynylphenanthrene)-3,6-dimethoxy-9,9-diphenylsilafluorene, referred to as Si phenanthrene, for 1 hour, then imaged on a confocal microscope (FIGS. 35 and 36).
# S. cerevisiae were stained with 2,7-bis(4-ethynylbenzaldehyde)-3,6-dimethoxy-9,9-diphenylsilafluorene, referred to as Si benzaldehyde, for 1 hour, then imaged on a confocal microscope (FIG. 37). Again, DMSO was used to permeabilize cells.
# [8] = system: calf thymus (mixed sequence) DNA; experiment: Spectroscopic DNA binding study; conditions: aqueous buffer, calf thymus DNA added
# [9] = Solvatochromism: emission in different solvents; type: physicochemical
# From the text: Solvents, like water and dichloromethane, greatly affect the fluorescence energy (i.e., color) of some molecules—this is called solvatochromism. Excited electrons may mobilize across the molecule more easily in these cases. For example, 2,7-bis(4-ethynylbenzaldehyde)-3,6-dimethoxysilafluorene emits green in ethanol, but blue in nonpolar solvents (FIGS. 23-24).
# [10] = Absorption and emission in CH2Cl2 solution and in the solid-state; type: physicochemical
# From the text: as §3
solubility in aqueous solution [1],φTX (quantum yield) [2],φSBDS (quantum yield) [2],φCTAB (quantum yield) [2],φCHAPS (quantum yield) [2],φSDS (quantum yield) [2],φTris (quantum yield) [2],φDCM (quantum yield) [3],Compound,spectral change when Triton X-100 is added [4],solubility in DMSO [1],further results
low micromolar concentrations,1.0 ± 0.04,0.49 ± 0.09,0.98,0.90 ± 0.02,0.55 ± 0.03,0.34 ± 0.005,0.80,COc1cc2c(cc1C#Cc1cccc(F)c1)[Si](c1ccccc1)(c1ccccc1)c1cc(C#Cc3cccc(F)c3)c(OC)cc1-2 [3Si],dramatic blue shifts and emission enhancements,–,emission enhancement upon the addition of detergent/membrane mimics (comparison) [4]: comparable; fluorescence inside cells [5]: observed inside of CHO cells
low micromolar concentrations,0.97 ± 0.04,0.56,0.93,0.86,0.55,0.24 ± 0.01,0.89,COc1cc2c(cc1C#Cc1ccc(C)cc1)[Si](c1ccccc1)(c1ccccc1)c1cc(C#Cc3ccc(C)cc3)c(OC)cc1-2 [4Si],dramatic blue shifts and emission enhancements,low millimolar concentrations; also recorded: low micromolar concentrations,–
–,–,–,–,–,–,–,–,COc1cc2[c](cc1C#Cc1ccc(C(C)(C)C)cc1)[Ge]([c]1ccccc1)([c]1ccccc1)[c]1cc(C#Cc3ccc(C(C)(C)C)cc3)c(OC)cc1-2 [5Ge],–,–,solid-state quantum yield [6]: 0.92
–,–,–,–,–,–,–,–,COc1cc2[c](cc1C#Cc1ccc(Oc3ccccc3)cc1)[Ge]([c]1ccccc1)([c]1ccccc1)[c]1cc(C#Cc3ccc(Oc4ccccc4)cc3)c(OC)cc1-2 [6Ge],–,–,solid-state quantum yield [6]: 0.81
low micromolar concentrations,0.94 ± 0.05,0.73,0.93,0.32,0.88 ± 0.05,0.11 ± 0.01,0.82,COc1cc2c(cc1C#Cc1ccc(-c3ccccc3)cc1)[Si](c1ccccc1)(c1ccccc1)c1cc(C#Cc3ccc(-c4ccccc4)cc3)c(OC)cc1-2 [7Si],–,low millimolar concentrations; also recorded: low micromolar concentrations; also recorded: least soluble,–
low micromolar concentrations,0.85 ± 0.06,0.47,0.99,0.93,0.30,0.094 ± 0.01,0.75,COc1ccc2cc(C#Cc3c[c]4c(cc3OC)-c3cc(OC)c(C#Cc5ccc6cc(OC)ccc6c5)c[c]3[Ge]4([c]3ccccc3)[c]3ccccc3)ccc2c1 [8Ge],–,low millimolar concentrations; also recorded: low micromolar concentrations,–
low micromolar concentrations,–,–,–,–,–,–,–,"COc1cc2c(cc1C#Cc1cccc3ccc4ccccc4c13)[Si](c1ccccc1)(c1ccccc1)c1cc(C#Cc3cccc4ccc5ccccc5c34)c(OC)cc1-2 [9Si, 2,7-bis(4-ethynylphenanthrene)-3,6-dimethoxy-9,9-diphenylsilafluorene]",dramatic blue shifts and emission enhancements,low millimolar concentrations; also recorded: low micromolar concentrations,"solubility in DMSO ([1]; listed as 9.1): least soluble; solubility in aqueous solution ([1]; listed as 2,7-bis-alkynyl(phenanthrene)silafluorene): low micromolar concentration; staining pattern in cells [7]: either localizing onto an intracellular structure or self-aggregating within the cell; change of fluorescence emission upon addition of DNA [8]: decrease in fluorescence emission; emission enhancement upon the addition of detergent/membrane mimics (comparison) [4]: greatest emission enhancement"
low micromolar concentrations,–,–,–,–,–,–,–,COc1cc2c(cc1C#Cc1ccc(-n3c4ccccc4c4ccccc43)cc1)[Si](c1ccccc1)(c1ccccc1)c1cc(C#Cc3ccc(-n4c5ccccc5c5ccccc54)cc3)c(OC)cc1-2 [11Si],–,low millimolar concentrations; also recorded: low micromolar concentrations,–
–,–,–,–,–,–,–,–,FC(F)(F)c1ccc(C#Cc2cc[c]3c(c2)-c2cc(C#Cc4ccc(C(F)(F)F)cc4)cc[c]2[Ge]3([c]2ccccc2)[c]2ccccc2)cc1 [16Ge],–,–,"shift of absorbance and emission compared to related 2,7-disubstituted derivatives ([10]; 3,6-disubstituted versus 2,7-disubstituted): significant blue-shift; absorption maximum ([10]; CH2Cl2 solution): 288 nm; emission maximum ([10]; CH2Cl2 solution): 352 nm; emission from the solid-state ([10]; solid-state): 393 nm"
–,–,–,–,–,–,–,–,COc1cc2c(cc1C#Cc1cccc(F)c1)[Si](c1ccccc1)(c1ccccc1)c1cc(C#Cc3cccc(F)c3)c(OC)cc1-2 [meta-fluoro-silafluorene],–,–,emission (in words) ([10]; methylene chloride solution and solid state): strong emission

Compound,solubility in aqueous solution [1],φTX (quantum yield) [2],φSBDS (quantum yield) [2],φCTAB (quantum yield) [2],φCHAPS (quantum yield) [2],φSDS (quantum yield) [2],φTris (quantum yield) [2],φDCM (quantum yield) [3],spectral change when Triton X-100 is added [4],solubility in DMSO [1],further results
"COc1cc2c(cc1C#Cc1ccc(C=O)cc1)[Si](c1ccccc1)(c1ccccc1)c1cc(C#Cc3ccc(C=O)cc3)c(OC)cc1-2 [13Si, 2,7-bis(4-ethynylbenzaldehyde)-3,6-dimethoxy-9,9-diphenylsilafluorene]",low micromolar concentrations,–,–,–,–,–,–,–,dramatic blue shifts and emission enhancements,low millimolar concentrations; also recorded: low micromolar concentrations,"staining pattern in cells [7]: staining diffuse throughout the cell; emission enhancement upon the addition of detergent/membrane mimics (comparison) [4]: comparable; emission λmax depending on the solvent ([9]; ethanol, dichloromethane, hexanes): 440-550 nm; emission colour ([9]; in ethanol): green; emission colour ([9]; in nonpolar solvents): blue"
